One assay has as its target T1, human estrogen receptor (Homo sapiens, UniProt P03372).
T1 construct: expressed in transfected cells; host or cells: CHO (Chinese Hamster Ovary) cells, stably transfected
The assay can be described thus: 2× VIT ERE Infection Assay (infection luciferase activity). As to conditions: 24 h, read-out: Infection Luciferase Activity, 1 uM. It is filed as cell-based. The protocol: 48 h prior to treatment the growth medium was replaced with DMEM lacking phenol red+10% dextran coated charcoal stripped FBS (treatment medium).
Reporter DNA (Promega plasmid pGL2 containing two tandem copies of the vitellogenin ERE in front of the minimal thymidine kinase promoter driving the luciferase gene) was combined with the B-galactosidase expression plasmid pCH110 (Pharmacia) and carrier DNA (pTZ18U) in the following ratio:
20 uL of this mixture was added to each well of cells and remained on the cells for 16 h. […] Each treatment condition was performed on 8 wells (n=8) which were incubated for 24 h prior to the luciferase assay.
After 24 h exposure to compounds, the media was removed and each well washed 2× with 125 uL of PBS lacking Mg^++ and Ca^++. After removing the PBS, 25 uL of Promega lysis buffer was added to each well and allowed to stand at room temperature for 15 min, followed by 15 min at -80° C. and 15 min at 37° C.
The luciferan substrate (Promega) was added in 100 uL aliquots to each well automatically by the luminometer and the light produced (relative light units) was read 10 seconds after addition.
To the remaining 5 uL of lysate 45 uL of PBS was added. Then 50 uL of Promega B-galactosidase 2× assay buffer was added, mixed well and incubated at 37° C. for 1 hour. A plate containing a standard curve (0.1 to 1.5 milliunits in triplicate) was set up for each experimental run. The plates were analyzed on a Molecular Devices spectrophotometric plate reader at 410 nm. The optical densities for the unknown were converted to milliunits of activity by mathematical extrapolation from the standard curve.
The luciferase data was generated as relative light units (RLUs) accumulated during a 10 second measurement and automatically transferred to a JMP (SAS Inc) file where background RLUs were subtracted. The B-galactosidase values were automatically imported into the file and these values were divided into the RLUs to normalize the data. The mean and standard deviations were determined from a n=8 for each treatment.

A further assay deals with T2, estrogen receptor (Homo sapiens, UniProt P03372).
T2 construct: expressed in transfected cells; host or cells: CHO cells overexpressing the receptor; cytosol (100,000 g supernatant)
T2 sequence (P03372 1-595): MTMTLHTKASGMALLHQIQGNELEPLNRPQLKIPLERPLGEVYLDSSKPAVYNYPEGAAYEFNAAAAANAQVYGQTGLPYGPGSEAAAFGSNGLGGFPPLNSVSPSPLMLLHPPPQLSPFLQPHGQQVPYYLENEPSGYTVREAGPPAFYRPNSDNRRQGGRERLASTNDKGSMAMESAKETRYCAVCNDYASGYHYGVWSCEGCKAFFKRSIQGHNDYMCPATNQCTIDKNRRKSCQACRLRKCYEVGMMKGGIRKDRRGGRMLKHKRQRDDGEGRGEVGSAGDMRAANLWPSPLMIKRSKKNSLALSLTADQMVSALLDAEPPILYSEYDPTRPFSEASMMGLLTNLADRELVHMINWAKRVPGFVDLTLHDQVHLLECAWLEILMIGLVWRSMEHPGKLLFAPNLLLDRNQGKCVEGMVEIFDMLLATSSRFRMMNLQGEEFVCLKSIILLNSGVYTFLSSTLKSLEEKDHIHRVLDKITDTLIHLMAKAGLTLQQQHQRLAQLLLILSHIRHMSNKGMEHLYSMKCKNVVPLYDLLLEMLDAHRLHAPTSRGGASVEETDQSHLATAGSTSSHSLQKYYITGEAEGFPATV
Kind of assay: In vitro Estrogen Receptor Binding Assay (competition with [3H]-17β-estradiol). The following applies: compared with indenoindole #6. As to the method: CHO cells overexpressing the estrogen receptor were grown in 150 mm^2 dishes in DMEM+10% dextran coated charcoal, stripped fetal bovine serum. The plates were washed twice with PBS and once with 10 mM Tris-HCl, pH 7.4, 1 mM EDTA. Cells were harvested by scraping the surface and then the cell suspension was placed on ice. Cells were disrupted with a hand-held motorized tissue grinder using two, 10-second bursts. The crude preparation was centrifuged at 12,000 g for 20 minutes followed by a 60 minute spin at 100,000 g to produce a ribosome free cytosol. The cytosol was then frozen and stored at -80° C. […]
The competition assay was performed in a 96-well plate (polystyrene*) which binds <2.0% of the total input [^3 H]-17β-estradiol and each data point was gathered in triplicate. […] Samples were counted to 2% or 10 minutes, whichever occurs first. […] 17βestradiol, wells containing radioactivity and cytosol, but not processed with charcoal were included to quantitate amounts of available isotope. Also, wells containing radioactivity but no cytosol were processed with charcoal to estimate unremovable DPM of [^3 H] […]
Counts per minute (CPM) of radioactivity were automatically converted to disintegrated per minute (DPM) by the Beckman LS 7500 Scintillation Counter using a set of quenched standards to generate a H# for each sample. […]

For the next assay, the system named is ovariectomized rat. The following applies: cited from earlier work.
The next assay relates to uterus. The following applies: in vivo; cited from earlier work.
The test system of the next assay is bone. The following applies: in humans; cited from earlier work.

Structures are written as SMILES.

For `COc1ccc2c(c1)Cc1c-2n(Cc2ccc(OCCN3CCCCC3)cc2)c2ccc(O)cc12` [Cmpd. 6, 2-Methoxy-5-[4-(2-piperidin-1-yl-ethoxy)-benzyl]-5,10-dihydro-indeno[1,2-b]indol-8ol], the activation at 1 µM at human estrogen receptor was -2%.
On to `COc1ccc2c(c1)CCc1c-2n(Cc2ccc(OCCN3CCCCC3)cc2)c2ccc(O)cc12` [Cmpd. 21, 3-Methoxy-11-[4-(2-piperidin-1-yl-ethoxy)-benzyl]-5,11-dihydro-6H-benzo[a]carbazol-8-ol], for which, at estrogen receptor, the “bind to the ER receptor (comparison in words)” value is on record as “bind better to the ER receptor than the indenoindole #6”. The activation at 1 µM at human estrogen receptor was -7%.
For `COc1ccc2c(c1)CCc1c-2n(Cc2ccc(OCCN3CCCCCC3)cc2)c2ccc(O)cc12` [Cmpd. 22, 11-[4-(2-Azepan-1-yl-ethoxy)-benzyl]-3-methoxy-5,11-dihydro-6H-benzo[a]carbazol-8-ol], the “bind to the ER receptor (comparison in words)” value on estrogen receptor is “bind better to the ER receptor than the indenoindole #6”. For the same compound, the activation at 1 µM on human estrogen receptor came out at 1%.
For `O=C(c1ccc(OCCN2CCCCC2)cc1)c1c(-c2ccc(O)cc2)sc2cc(O)ccc12` [Raloxifene], the “ability to spare bone” value with ovariectomized rat is reported as “maintaining the ability to spare bone”. In the assay with ovariectomized rat (compared with Tamoxifen), the “stimulation of uterine growth” value is “stimulate uterine growth in the ovariectomized rat to a lesser extent than Tamoxifen”.
Regarding `CC/C(=C(\c1ccccc1)c1ccc(OCCN(C)C)cc1)c1ccccc1` [Tamoxifen], in the assay with uterus, the “agonism in the uterus” value is reported as “partial agonist in the uterus”. In addition, in the assay on bone, the “effect on the bone” value is recorded as “estrogen agonist-like effect on the bone”.

These data come from patent US6159959A, “Combined estrogen and antiestrogen therapy” (American Home Products Corporation, priority 1999, dated 2000).
